From publication PMC10453766, “Comparison of the Effects of DOTA and NOTA Chelators on ^64Cu-Cudotadipep and ^64Cu-Cunotadipep for Prostate Cancer” (Diagnostics, 2023)

What was measured:
PC3-PIP (PSMA+) cells = assay: Cell uptake in PC3-PIP cells; assay type: cell-based, human; conditions: as given in the abstract
Method: PC3-PIP or PC3-flu cells (1 × 10^6) were mixed with 3.7 MBq (100 μCi) of ^64Cu-cudotadipep or ^64Cu-cunotadipep and incubated at 37 °C and 5% CO2 for 2 h. Following incubation, the cells were washed with PBS twice and collected via centrifugation (2000 rpm, 5 min). Radioactivity was measured using 2480 WIZARD2 gamma counter (Perkin Elmer, Waltham, MA, USA). Percent (%) uptake was calculated using the ratio between the radioactivity of the cells and treated radioactivity.

PSMA [1] = target: T1, PSMA (Homo sapiens, UniProt Q04609); assay: Competitive binding assay against ^125I-MIP-1095 in 22Rv1 cells; conditions: for Ki: 22Rv1 cells, converted from IC50 with the Cheng–Prusoff equation using Kd of MIP-1095; for IC50: cold forms, PSMA-expressing 22Rv1 cells, 1 h, 37 °C
T1 construct: host or cells: 22Rv1 human prostate cancer cells (intact cells)
T1 sequence (Q04609 whole entry): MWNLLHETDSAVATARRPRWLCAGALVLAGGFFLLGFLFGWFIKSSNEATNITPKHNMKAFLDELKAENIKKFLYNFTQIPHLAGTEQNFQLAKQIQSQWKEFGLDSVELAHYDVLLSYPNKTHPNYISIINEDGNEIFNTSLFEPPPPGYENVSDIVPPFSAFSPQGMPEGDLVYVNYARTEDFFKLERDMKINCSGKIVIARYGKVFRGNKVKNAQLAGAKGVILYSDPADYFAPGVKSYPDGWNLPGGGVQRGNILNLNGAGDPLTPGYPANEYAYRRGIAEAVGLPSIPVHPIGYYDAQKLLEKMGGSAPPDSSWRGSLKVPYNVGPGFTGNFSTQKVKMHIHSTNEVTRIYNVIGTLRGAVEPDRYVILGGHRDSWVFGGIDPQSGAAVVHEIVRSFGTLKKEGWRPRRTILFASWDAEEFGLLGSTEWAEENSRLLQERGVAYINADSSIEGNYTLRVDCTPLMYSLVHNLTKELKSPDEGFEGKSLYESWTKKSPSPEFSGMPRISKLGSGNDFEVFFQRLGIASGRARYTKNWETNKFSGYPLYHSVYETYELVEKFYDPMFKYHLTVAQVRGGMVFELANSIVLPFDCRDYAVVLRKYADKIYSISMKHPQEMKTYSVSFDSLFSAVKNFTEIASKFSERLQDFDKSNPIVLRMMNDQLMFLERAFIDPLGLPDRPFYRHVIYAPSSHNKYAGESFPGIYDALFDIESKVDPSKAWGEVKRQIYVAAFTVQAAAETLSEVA
Method: The 22Rv1 cells (1 × 10^6 cells/well, 48-well plate) were washed with phosphate-buffered saline (PBS), and the culture medium was substituted with RPMI-1640 medium containing 1% bovine serum albumin. The cells were incubated for 1 h at 37 °C and 5% CO2 with unlabeled cudotadipep or cunotadipep (1.00 × 10^−4–1.00 × 10^−10 M) or 0.09–0.1 nM ^125I-(S)-2-(3-((S)-1-carboxy-5-(3-(4-iodophenyl)ureido)pentyl)ureido)pentanedioic acid (^125I-MIP-1095). The cells were washed twice in cold PBS and collected via centrifugation (2000 rpm, 5 min). Radioactivity was measured using 2480 WIZARD2 gamma counter (Perkin Elmer, Waltham, MA, USA). IC50 was calculated using Microsoft Excel and converted to Ki, using the Cheng–Prusoff equation [21].

PSMA [2] = target: T1, PSMA; assay: Saturation binding assay of ^125I-MIP-1095 in 22Rv1 cells; conditions: saturation binding test
Method: The dissociation constant (Kd) of MIP-1095 was determined via a saturation binding assay. The saturation binding assay was performed as performed in a previous study. Briefly, the 22Rv1 cells (2 × 10^5) were aliquoted into wells in a 24-well plate and incubated with 0.7–17.5 nM (0.0037–0.1332 MBq) of ^125I-MIP-1095 at 37 °C for 1 h. To prevent nonspecific binding, 500 μM unlabeled MIP was added. Radioactivity was measured using 2480 WIZARD2 gamma counter (Perkin Elmer, Waltham, MA, USA). Statistical analysis was performed using Microsoft Excel.

[3] = ^18F-labeled PSMA compounds; cited from earlier work

| SMILES | cellular uptake (PC3-PIP (PSMA+) cells) [%/1 × 10^6 cells] | Ki (PSMA [1]) [nM] | IC50 (PSMA [1]) [nM] | Bmax (PSMA [2]) [nM] | Kd (PSMA [2]) [nM] | effective dose [3] |
| --- | --- | --- | --- | --- | --- | --- |
| O=C([O-])CN1CCN(CC(=O)[O-])CCN(CC(=O)N[C@@H](CCCCNC(=O)CCCc2ccc(I)cc2)C(=O)NCCOCCOCC(=O)N(CCCC[C@H](NC(=O)N[C@@H](CCC(=O)O)C(=O)O)C(=O)O)CC(=O)O)CCN(CC(=O)[O-])CC1.[Cu+2] [Cu-cudotadipep] | 2.93 ± 0.06 | 6.75 ± 0.42 | 16.8 ± 1.05 | – | – | – |
| O=C([O-])CN1CCN(CC(=O)[O-])CCN(CC(=O)N[C@@H](CCCCNC(=O)CCCc2ccc(I)cc2)C(=O)NCCOCCOCC(=O)N(CCCC[C@H](NC(=O)N[C@@H](CCC(=O)O)C(=O)O)C(=O)O)CC(=O)O)CC1.[Cu+2] [Cu-cunotadipep] | 6.02 ± 0.05 | 2.17 ± 0.25 | 5.42 ± 0.64 | – | – | – |
| O=C(O)CC[C@H](NC(=O)N[C@@H](CCCCNC(=O)Nc1ccc(I)cc1)C(=O)O)C(=O)O [MIP-1095, ^125I-(S)-2-(3-((S)-1-carboxy-5-(3-(4-iodophenyl)ureido)pentyl)ureido)pentanedioic acid] | – | – | – | 0.25 | 0.13 | – |
| O=C(O)CC[C@H](NP(=O)(O)OCCC[C@H](NC(=O)CC[C@H](NC(=O)CCCCCNC(=O)c1ccc([18F])cc1)C(=O)O)C(=O)O)C(=O)O [^18F-CTT1057] | – | – | – | – | – | 2.28 × 10^−2 mSv/MBq |
